Measurements reported in patent publication US8609656B2, “Heteroarylphenylurea derivative” (Chugai Seiyaku Kabushiki Kaisha, priority 2004, dated 2013).
≈ marks a conversion by molar mass, not a printed value. Where a name gives a salt, the structure may show the parent alone.

Assays:
[1] = Solubility to fasted state simulated intestinal fluid; format: physicochemical; conditions: fassif, kinetic from dmso stock, fasted state simulated intestinal fluid (pH 6.5), 37° C.
Procedure: Method of Measuring Solubility to Fasted State Simulated Intestinal Fluid
To a 96-well plate, 2 μL of a dimethyl sulfoxide solution of the compound relating to the present invention or that of the compound BAY 43-9006 was poured at one time, respectively, and fasted state simulated intestinal fluid (pH 6.5) was added 200 μL by 200 μL, and the plate was shaken at 37° C. for 20 hours. The solution was filtered with a membrane filter and 101 μL of the filtrate was transferred to an UV plate, and 100 μL of a mixed solution of ethanol:water=2:1 was added thereto. On the other hand, as a standard solution, 2 μL of a dimethyl sulfoxide solution was added to a solution containing 4 μL of dimethyl sulfoxide, 400 μL of ethanol and 200 μL of water and the obtained solution was transferred 101 μL by 101 μL to the UV plate and to this UV plate, the simulated fasting bile-containing intestinal juice (pH 6.5) was added 100 μL by 100 μL. The solubility was calculated by the following equation. Solubility=(absorbance of sample solution-blank)/(absorbance of standard solution-blank)×[…]
165 μL is a concentration of the standard solution.
Composition of Fasted State Simulated Intestinal Fluid
Fasted state simulated intestinal fluid was prepared in accordance with E. Galia et al., Pharm. Res., 698, 1998.
To about 90 mL of water, 161 mg of taurocholic acid, 59 mg of L-α-phosphatidylcholine, 0.39 g of potassium dihydrogenphosphate and 0.77 g of potassium chloride were added and the pH of the mixture solution […] and the mixture solution was filtered with a membrane filter.

[2] = target: T1, recombinant Raf-1 protein (activated type GST-Raf-1) (Homo sapiens, UniProt P04049); assay: RAF-1 enzyme inhibition test (33P incorporation into MEK 1 protein); format: biochemical; conditions: 10 μM ATP, GST-MEK1 substrate, 30° C., 45 minutes; read-out: Raf-1 Enzyme Inhibition, 50% Enzyme Inhibition Concentration (IC50 value)
T1 construct: fused on or other part: GST tag fused to Raf-1
T1 sequence (P04049 349-648 limits assumed): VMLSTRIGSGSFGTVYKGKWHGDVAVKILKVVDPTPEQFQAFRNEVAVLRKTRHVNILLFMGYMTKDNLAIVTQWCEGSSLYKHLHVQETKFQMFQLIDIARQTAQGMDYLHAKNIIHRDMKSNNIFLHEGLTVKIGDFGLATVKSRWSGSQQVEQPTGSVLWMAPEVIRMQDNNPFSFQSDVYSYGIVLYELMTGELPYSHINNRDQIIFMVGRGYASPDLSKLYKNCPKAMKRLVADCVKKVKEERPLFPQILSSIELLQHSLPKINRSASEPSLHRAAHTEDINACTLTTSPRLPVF
Procedure: RAF-1 Enzyme Inhibition Test
With respect to the compounds relating to the present invention and the known compound (BAY 43-9006):
[drawing 660] the Raf-1 protein inhibition activity was measured. The enzymatic reaction was measured by incorporation of ^33P-phosphoric acid into MEK 1 protein by a recombinant Raf-1 protein. The activity was measured by preparing 50 μL of a reaction solution containing a dimethyl sulfoxide solution of the compound relating to the present invention or the compound BAY 43-9006 at a varied concentration [as the final concentration, the reaction solution containing […] of TRIS hydrochloric buffer (pH 7.5), 1 mM of dithiothreitol, 100 mM of sodium chloride, 10 mM of potassium fluoride, 1 mM of sodium vanadate, 10 mM of magnesium chloride, 10 μM of adenosine triphosphate (ATP, containing ^33P-ATP of 12580Bq), 2 μg of GST-MEK1 and 25 ng of an activated type GST-Raf-1]; keeping the reaction solution at 30° C. for 45 minutes; adding 100% trichloroacetic acid to the reaction solution in an amount twice the volume of the reaction solution to precipitate a proteinous component; recovering the precipitate on a glass filter; and measuring the radioactivity of the recovered product. The 50% inhibition concentration (IC50) was obtained from the inhibition ratio to a sample-free reference.
The compound BAYT 43-9006 was prepared on the basis of the description (Example 41) of WO 00/42012.

With `CNCCOc1cccc2c1ccn2-c1ccc(NC(=O)Nc2ccc(Cl)c(C(F)(F)F)c2)cc1.Cl` [Table 1, Compound 21, 1-(4-Chloro-3-(trifluoromethyl)phenyl)-3-{4-[4-(2-methylamino-ethoxy)-indol-1-yl]phenyl}urea hydrochloride] as the compound, how does the solubility at 20 h [1] read?
Its solubility at 20 h is 24 µg/mL.

With `Cl.Nc1ncc2ncn(-c3ccc(NC(=O)Nc4ccc(Cl)c(C(F)(F)F)c4)cc3)c2n1` [Table 1, Compound 34, 1-[4-(2-Aminopurin-9-yl)phenyl]-3-(4-chloro-3-(trifluoromethyl)phenyl)urea hydrochloride] as the compound, how does the solubility at 20 h [1] read?
The solubility at 20 h was 34 µg/mL.

Which solubility at 20 h [1] does the source give for `CNc1ncnc2c1ncn2-c1ccc(NC(=O)Nc2ccc(CCN3CCN(C(C)C)CC3)c(C(F)(F)F)c2)cc1` [Table 3, Compound 37, 1-{4-[2-(4-Isopropyl-piperazin-1-yl)ethyl]-3-(trifluoromethyl)phenyl}-3-[4-(6-(methylamino)purin-9-yl)phenyl]urea] here?
Its solubility at 20 h is 193 µg/mL (≈ 332 µM).

For `CNc1ncnc2c1ncn2-c1ccc(NC(=O)Nc2cc(C(=O)N3CCN(C)CC3)cc(C(F)(F)F)c2)cc1` [Table 2, Compound 39], which solubility at 20 h [1] is on record?
The solubility at 20 h was 48 µg/mL (≈ 86.7 µM).

With `CCc1nc2c(N)ncnc2n1-c1ccc(NC(=O)Nc2cc(CN3CCN(C)CC3)cc(C(F)(F)F)c2)cc1` [Table 2, Compound 32] as the compound, how does the solubility at 20 h [1] read?
The solubility at 20 h was 175 µg/mL (≈ 316 µM).

With `CC(=O)Oc1cccc2c1ccn2-c1ccc(NC(=O)Nc2ccc(Cl)c(C(F)(F)F)c2)cc1` [Table 1, Compound 18, Acetic acid 1-{4-[3-(4-chloro-3-(trifluoromethyl)phenyl)ureido]phenyl}-1H-indol-4-yl ester] as the compound, how does the IC50 [2] read?
The IC50 was 47 nM.

With `O=C(Nc1ccc(Cl)c(C(F)(F)F)c1)N(O)c1ccc(-n2cnc3ncncc32)cc1` [Table 1, Compound 46, 1-(4-Chloro-3-(trifluoromethyl)phenyl)-3-hydroxy-3-(4-purin-7-ylphenyl)urea] as the compound, how does the IC50 [2] read?
Its IC50 is 67 nM.

With `CN1CCN(Cc2cc(NC(=O)Nc3ccc(-n4c(I)nc5c(N)ncnc54)cc3)cc(C(F)(F)F)c2)CC1` [Table 2, Compound 27] as the compound, how does the IC50 [2] read?
The IC50 was 67 nM.

With `CN(C)CCN(C)c1ccc(NC(=O)Nc2ccc(-n3cnc4c(N)ncnc43)cc2)cc1C(F)(F)F` [Table 2, Compound 35, 1-[4-(6-Aminopurin-9-yl)phenyl]-3-{4-[(2-dimetylaminoethyl)-methylamino]-3-(trifluoro-methyl)phenyl]urea] as the compound, how does the solubility at 20 h [1] read?
Its solubility at 20 h is 149 µg/mL (≈ 290 µM).

Which IC50 [2] does the source give for `C=Cc1nc2c(N)ncnc2n1-c1ccc(NC(=O)Nc2ccc(Cl)c(C(F)(F)F)c2)cc1` [Table 2, Compound 8, 1-[4-(6-Amino-8-vinylpurin-9-yl)phenyl]-3-(4-chloro-3-(tri-fluoromethyl)phenyl)urea] here?
The IC50 was 29 nM.

Which IC50 [2] does the source give for `CN(C)CCNC(=O)c1cc(NC(=O)Nc2ccc(-n3cnc4ncnc(N)c43)cc2)cc(C(F)(F)F)c1` [Table 3, Compound 9, 3-{3-[4-(6-Aminopurin-7-yl)phenyl]ureido}-N-(2-(dimethylamino)ethyl)-5-(trifluoromethyl)benzamide] here?
Its IC50 is 85 nM.

For `COCCOC(=O)Nc1ncnc2c1ncn2-c1ccc(NC(=O)Nc2ccc(Cl)c(C(F)(F)F)c2)cc1` [Table 1, Compound 115, (9-{4-[3-(4-Chloro-3-(tri-fluoromethyl)phenyl)ureido]-phenyl}-9H-purin-6-yl)carbamic acid 2-methoxyethyl ester], which solubility at 20 h [1] is on record?
Its solubility at 20 h is 19 µg/mL (≈ 34.6 µM).

With `CNc1ncnc2c1ncn2-c1ccc(NC(=O)Nc2cc(CCN3CCOCC3)cc(C(F)(F)F)c2)cc1` [Table 2, Compound 73, 1-[4-(6-(Methylamino)purin-9-yl)phenyl]-3-[3-(2-morpholin-4-yl-ethyl)-5-(trifluoromethyl)phenyl]urea] as the compound, how does the IC50 [2] read?
The IC50 was 84 nM.

Which solubility at 20 h [1] does the source give for `O=C(Nc1ccc(-n2cnc3c(NCCN4CCOCC4)ncnc32)cc1)Nc1ccc(Cl)c(C(F)(F)F)c1` [Table 2, Compound 11, 1-(4-Chloro-3-(trifluoromethyl)-phenyl)-3-{4-[6-(2-morpholin-4-yl-ethylamino)purin-9-yl]-phenyl}urea] here?
The solubility at 20 h was 38 µg/mL (≈ 67.7 µM).

Which solubility at 20 h [1] does the source give for `CNc1ncnc2c1ncn2-c1ccc(NC(=O)Nc2ccc(CCN(C)CCN(C)C)c(C(F)(F)F)c2)cc1` [Table 3, Compound 36, 1-(4-{2-[(2-(Dimethylamino)ethyl)-methylamino]-ethyl}-3-(trifluoromethyl)phenyl)-3-[4-(6-(methylamino)-purin-9-yl)phenyl]urea] here?
The solubility at 20 h was 107 µg/mL (≈ 193 µM).

Which IC50 [2] does the source give for `Nc1ncnc2c1ncn2-c1ccc(NC(=O)Nc2ccc(Cl)c(C(F)(F)F)c2)cc1` [Table 1, Compound 30, 1-[4-(6-Aminopurin-9-yl)phenyl]-3-(4-chloro-3-(trifluoromethyl)phenyl)urea hydrochloride] here?
The IC50 was 33 nM.

Which IC50 [2] does the source give for `CNc1ncnc2c1ncn2-c1ccc(NC(=O)Nc2cc(CCN(C)C)cc(C(F)(F)F)c2)cc1` [Table 2, Compound 71, 1-[3-(2-Dimethylamino-ethyl)-5-(trifluoromethyl)phenyl]-3-[4-(6-(methylamino)purin-9-yl)phenyl]urea] here?
The IC50 was 190 nM.

With `COCCOCCOCC(=O)Nc1ncnc2c1ncn2-c1ccc(NC(=O)Nc2ccc(Cl)c(C(F)(F)F)c2)cc1` [Table 1, Compound 109, N-(9-{4-[3-(4-Chloro-3-(tri-fluoromethyl)phenyl)ureido]-phenyl}-9H-purin-6-yl)-2-[2-(2-methoxyethoxy)ethoxy]acetamide] as the compound, how does the solubility at 20 h [1] read?
The solubility at 20 h was 39 µg/mL (≈ 64.1 µM).

For `CNc1ncnc2c1ncn2-c1ccc(NC(=O)Nc2ccc(CNCCN3CCCC3)c(C(F)(F)F)c2)cc1` [Table 3, Compound 15], which solubility at 20 h [1] is on record?
The solubility at 20 h was 104 µg/mL (≈ 188 µM).

For `CNc1ncnc2c1ncn2-c1ccc(NC(=O)Nc2ccc(CCN(C)CCCN(C)C)c(C(F)(F)F)c2)cc1` [Table 3, Compound 38, 1-(4-{2-[(3-(Dimethylamino)propyl)methylamino]ethyl}-3-(trifluoromethyl)phenyl)-3-[4-(6-(methylamino)purin-9-yl)phenyl]urea], which solubility at 20 h [1] is on record?
The solubility at 20 h was 147 µg/mL (≈ 258 µM).

With `CN(C)CCNC(=O)c1nccc2c1ncn2-c1ccc(NC(=O)Nc2ccc(Cl)c(C(F)(F)F)c2)cc1` [Table 1, Compound 92, 1-(4-[3-(4-Chloro-3-(trifluoro-methyl)phenyl)ureido]phenyl}-1H-imidazo[4,5-c]pyridine-4-carboxylic acid (2-dimethyl-aminoethyl)amide] as the compound, how does the solubility at 20 h [1] read?
The solubility at 20 h was 76 µg/mL (≈ 139 µM).

Which solubility at 20 h [1] does the source give for `CN(C)Cc1nc2c(N)ncnc2n1-c1ccc(NC(=O)Nc2ccc(Cl)c(C(F)(F)F)c2)cc1` [Table 2, Compound 12, 1-[4-(6-Amino-8-dimethylamino-methyl-purin-9-yl)phenyl]-3-(4-chloro-3-(trifluoromethyl)-phenyl)urea] here?
Its solubility at 20 h is 265 µg/mL (≈ 525 µM).

For `CNc1ncnc2c1ncn2-c1ccc(NC(=O)Nc2ccc(CCCN3CCCC3)c(C(F)(F)F)c2)cc1` [Table 2, Compound 77, 1-[4-(6-(Methylamino)purin-9-yl)phenyl]-3-[4-[3-pyrrolidin-1-yl-propyl]-3-(trifluoromethyl)phenyl]-urea], which solubility at 20 h [1] is on record?
Its solubility at 20 h is 34 µg/mL (≈ 63.1 µM).

Which solubility at 20 h [1] does the source give for `CN1CCN(Cc2cc(NC(=O)Nc3ccc(-n4cnc5c(C(N)=O)nccc54)cc3)cc(C(F)(F)F)c2)CC1` [Table 2, Compound 33, 1-(4-{3-[3-(4-Methylpiperazin-1-ylmethyl)-5-(trifluoromethyl)-phenyl]ureido}-phenyl)-1H-imidazo[4,5-c]pyridine-4-carboxamide] here?
Its solubility at 20 h is 193 µg/mL (≈ 349 µM).

With `CNc1ncnc2c1nc(OC)n2-c1ccc(NC(=O)Nc2ccc(Cl)c(C(F)(F)F)c2)cc1` [Table 2, Compound 21, 1-(4-Chloro-3-(trifluoromethyl)-phenyl)-3-[4-(8-methoxy-6-(methylamino)purin-9-yl)phenyl]-urea] as the compound, how does the solubility at 20 h [1] read?
The solubility at 20 h was 120 µg/mL (≈ 244 µM).
